Results: patent US20240315991A1, “USES OF HNF4 ALPHA AGONISTS” (Sanford Burnham Prebys Medical Discovery Institute, priority 2023, published 2024)

What was measured:
citrate synthase = experiment: Citrate synthase activity in liver homogenate; assay type: in vivo, mouse; conditions: HFD+NCT vs HFD, FIGS. 3A-3C
Experimental: (§1) NCT oral administration. Four-week-old male C57BL/6J (JAX cat #000664) mice were purchased from Jackson laboratory and were maintained in a 12 h light/dark cycle throughout the experiment. Prior to the experiments, mice were acclimated for 2 weeks. Six-week-old mice with similar body weights were randomized to a normal diet (NC), a high fat diet (HFD) (Research Diets, cat #D12492 60 kcal % fat) or HFD containing 4000 ppm NCT (HFD+NCT) (Research Diets, 60 kcal % fat+4000 ppm NCT), which was calculated to provide approximately 400 mg/kg/d NCT. HFD chow containing NCT was made with gray dye to distinguish it from regular HFD chow that had green dye. Mice for each treatment group were placed in separate cages. Equal amounts of fresh chow were provided every week to all mice. Body weight gain and food intake were measured every week for 10 weeks. After 10 weeks of chow treatment, mice were sacrificed for analysis. All animal experiments were approved by the Institutional Animal Care and Use Committee (IACUC) of the Sanford Burnham Prebys Medical Discovery Institute in accordance with national regulations. […]
Citrate synthase activity. Citrate synthase activity in liver homogenate was measured according to manufacturer's instructions using a calorimetry based MitoCheck Citrate Synthase Activity Assay Kit (Cat #701040, Cayman Chemicals, USA).

SDHA mRNA = experiment: RT-PCR of mouse liver, SDHA; assay type: in vivo; conditions: HFD+NCT vs HFD, FIGS. 3G and 3H
Experimental: as §1, with “analysis.” for “analysis. All animal experiments were approved by the Institutional Animal Care and Use Committee (IACUC) of the Sanford Burnham Prebys Medical Discovery Institute in accordance with national regulations.”
(§2) RT-PCR. […] Quantitative real time PCR (RT-PCR) analysis was performed using SYBR® Select Master Mix (Applied Biosystems) and an ABI 7900HT thermal cycler (Applied Biosystems, Thermo Fisher Scientific). Ct values were normalized to 18s rRNA and are expressed as fold change over samples from mice fed NC or cultured human hepatocytes without NCT.

ILIβ mRNA = experiment: RT-PCR of mouse liver, ILIβ; assay type: in vivo; conditions: HFD+NCT vs HFD, FIG. 5C
Experimental: as §1, with “analysis.” for “analysis. All animal experiments were approved by the Institutional Animal Care and Use Committee (IACUC) of the Sanford Burnham Prebys Medical Discovery Institute in accordance with national regulations.”
as §2

TNFα mRNA = experiment: RT-PCR of primary human hepatocytes, TNFα; assay type: cell-based; conditions: HEP-fat media, NCT 5, 15, and 40 μM, dose-responsive manner, FIG. 5F
Experimental: Primary human hepatocytes. Experiments with primary human hepatocytes were performed by CN-Bio (Cambridge, UK). Briefly, primary human hepatocytes (PHHs), human Kupffer cells (HKs) and human stellate cells (HSCs) were seeded onto CN-Bio's PhysioMimix LC12 MPS culture plates at 6×10^5 cells for PHHs and 6×10^4 cells for HKs and HSCs in 1.6 ml of CN-Bio's HEP-lean media with 5% FCS. Throughout the experiment the cells were maintained at a flow rate of 1 μl/s. After 24 hours (Day 1) of seeding, the media was changed to HEP-lean media and the cells were incubated until day 4 to allow the cells to form microtissues. At day 4 post seeding, media was changed to HEP-fat media and treated with DMSO or NCT (5, 15, and 40 μM). Media was replaced on days 6 and 8. Cells were harvested on day 10 for RNA extraction and culture media was collected for ELISA analysis.
as §2

VDAC1 = VDAC1 immunofluorescence of liver sections; assay type: in vivo, mouse; conditions: HFD+NCT vs HFD, FIGS. 3A-3C
Experimental: as §1, with “analysis.” for “analysis. All animal experiments were approved by the Institutional Animal Care and Use Committee (IACUC) of the Sanford Burnham Prebys Medical Discovery Institute in accordance with national regulations.”
Immunofluorescence. […] Slides were mounted using fluorescence mounting medium and images were obtained at ×40 magnification using an Olympus IX71 fluorescence microscope. Fluorescence intensity of HNF4α-stained nuclei and VDAC stained mitochondria was calculated using MetaMorph TL software (version 7.6.5.0, Olympus). Fold change was calculated by normalizing to values from mice fed NC.

[1] = system: mice maintained on a 60% fat calorie diet; conditions: intraperitoneal injection for 2 weeks; cited from earlier work
[2] = system: blood alanine transaminase (ALT); experiment: Liver profile analysis, blood ALT; assay type: in vivo, mouse; conditions: mice fed on HFD, HFD+NCT vs HFD, FIG. 5I
Experimental: as §1, with “analysis.” for “analysis. All animal experiments were approved by the Institutional Animal Care and Use Committee (IACUC) of the Sanford Burnham Prebys Medical Discovery Institute in accordance with national regulations.”
Liver profile analysis. […] The levels of multiple analytes, including alkaline phosphatase (ALP), alanine aminotransferase (ALT), gamma glutamyl transferase (GGT), bile acids (BA), total bilirubin (TBIL), albumin (ALB), blood urea nitrogen (BUN), total cholesterol (CHOL) were quantified using a VetScan VS2 Chemistry Analyzer (Abaxis North America, USA).

T6PNE cells = experiment: Nitric oxide assay in T6PNE cells treated with palmitate; assay type: cell-based; conditions: 0.12 mM palmitate plus 15 μM NCT, 3 days, FIG. 5H
Experimental: T6PNE cells were maintained in RPMI (5.5 mM glucose, Corning) supplemented with 10% fetal bovine serum (FBS, Sigma-Aldrich) and 1% penicillin-streptomycin (pen-strep, Gibco) in 5% CO2 at 37° C. Cells were treated with […] palmitate plus 0 or 15 μM NCT for 3 days in 10 cm plates and harvested with 500 μL PBS. For tissue specimens, snap frozen mouse liver was weighed and homogenized with PBS. NO was measured with the QuantiChrom Nitric Oxide Assay kit (D2NO-100, BioAssay Systems). Homogenized samples (150 μL) were processed for deproteination with 8 μL ZnSO4 and 8 μL NaOH. For normalization, an aliquot of samples from T6PNE cells was taken for BCA assay before deproteination. Samples and standard from kit were incubated with reagents for 20 min at 60° C. and measured OD 540 nm.
150 mM Palmitate (Sigma-Aldrich) was prepared in 50% ethanol and precomplexed with 15% fatty acid-free BSA (Research Organics, Cleveland, OH, USA) in a 37° C. water shaker. BSA-precomplexed palmitate was used as a 12 mM stock solution for all assays with a final concentration of 0.12 mM palmitate in cell culture medium.

Sirt3 mRNA = experiment: RT-PCR of mouse liver, Sirtuin3; assay type: in vivo; conditions: HFD+NCT vs HFD, FIG. 4E
Experimental: as §1, with “analysis.” for “analysis. All animal experiments were approved by the Institutional Animal Care and Use Committee (IACUC) of the Sanford Burnham Prebys Medical Discovery Institute in accordance with national regulations.”
as §2

## O=C(/C=C/c1ccc(O)c(O)c1)NCCc1ccc(O)cc1 [NCT, N-trans caffeoyltyramine]
Citrate synthase
  citrate synthase level in liver: reverse the depression
SDHA mRNA
  SDHA mRNA in mouse liver: increase
ILIβ mRNA
  expression level of ILIβ in mouse liver: non-significant
ILIβ mRNA; listed as Compound A
  expression level of ILIβ in mouse liver: not affect
TNFα mRNA
  TNFα mRNA level in cultured human hepatocytes: decrease
VDAC1
  VDAC1 level in liver: reverse the depression
[1]
  body weight loss: no body weight loss
  fat stored in liver: reduce
[2]
  blood alanine transaminase (ALT) level: decrease
T6PNE cells
  level of NO in cultured cells treated with palmitate: decrease
Sirt3 mRNA
  Sirt3 mRNA in mouse liver: reverse the depression
